Nine molecules from ChEMBL document CHEMBL1201862, “PubChem BioAssay data set” (2004) can be followed below.

Some test systems named below: A549; ACHN; CCRF-CEM; EKVX; HOP-92; KM12; LOX IMVI; MDA-N; MOLT-4; OVCAR-3; OVCAR-4; OVCAR-5; OVCAR-8; PC-3; SK-MEL-28; SN12C; SR; SW-620; T47D; UACC-62.
Test in all cases: growth of human tumour cells (NCI), 48 h

Molecules are shown by their SMILES. Several values for one entry are separate records, joined by “and”; a condition that tells them apart may be missing. Equal values may be shown once.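 Values below derive from 48-hour exposures of cells grown in 96-well plates, with endpoints linearly interpolated between the two concentrations bracketing the appropriate inhibition level. The concentration for 50% growth inhibition is given as GI50.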 Activity calls are given as the source filed them. No stated cut-off is given here; in the data, active = GI50 up to about 1.1 µM and inactive = higher.

For `Cc1nc(O)c(O)c(CN2CCCCC2)n1`, the GI50 with A549, in the test on ACHN, with CCRF-CEM, in the test on EKVX, in the test with HOP-92 and in the test with KM12 was > 100 µM (inactive) throughout. Further, the GI50 with LOX IMVI, in the test on MDA-N, in the test on MOLT-4, in the test with OVCAR-3, in the test on OVCAR-4 and in the test with OVCAR-5 was > 100 µM (inactive) each time. Moreover, the GI50 in the test with OVCAR-8, in the test on PC-3, in the test with SK-MEL-28, with SN12C, with SR and in the test on SW-620 was > 100 µM (inactive) in each case. Moreover, the GI50 in the test on T47D and in the test with UACC-62 was > 100 µM (inactive) throughout.

As to `C=C1CC(Cn2ccc(=O)[nH]c2=O)(c2ccc(Cl)cc2)OC1=O` (stereo not drawn), the GI50 is 16.9 µM (inactive) in the test with A549; 5.15 µM (inactive) in the test with ACHN; 1.63 µM (inactive) in the test on CCRF-CEM; 16.4 µM (inactive) in the test on EKVX; 2.07 µM (inactive) with HOP-92; 14 µM (inactive) in the test with KM12. The GI50 with LOX IMVI was 2.14 µM (inactive); with MDA-N, 4.58 µM (inactive); with MOLT-4 it was 1.78 µM (inactive); with OVCAR-3, 7.1 µM (inactive); in the test on OVCAR-4, 1.88 µM (inactive); with OVCAR-5, 15.7 µM (inactive). Further, the GI50 is 7.87 µM (inactive) with OVCAR-8; 6.64 µM (inactive) in the test with PC-3; 4.3 µM (inactive) in the test on SK-MEL-28; 11.6 µM (inactive) with SN12C; 2.02 µM (inactive) in the test with SR; 1.83 µM (inactive) with SW-620. Besides, the results for the GI50 in the test with T47D and in the test with UACC-62 were 3.03 µM (inactive) and 5.15 µM (inactive), respectively.

Take `CCOC(=O)c1c(N2CCCC2)[nH]c(=O)c(C(c2ccc(Cl)c([N+](=O)[O-])c2)c2c(O)c(C(=O)OCC)c(N3CCCC3)[nH]c2=O)c1O`: the GI50 in the test on A549 was > 100 µM (inactive); in the test on ACHN it was 34.3 µM (inactive); with CCRF-CEM, 23.6 µM (inactive); in the test with EKVX it was 33.7 µM (inactive); in the test with HOP-92, 18.5 µM (inactive); in the test with KM12, > 100 µM (inactive). Moreover, the GI50 is 19.3 µM (inactive) in the test on LOX IMVI; 24.5 µM (inactive) in the test with MDA-N; 46.6 µM (inactive) in the test with MOLT-4; 29.9 µM (inactive) with OVCAR-3; > 100 µM (inactive) in the test with OVCAR-4; 30.2 µM (inactive) in the test with OVCAR-5. Moreover, the GI50 with OVCAR-8 was 15.5 µM (inactive); in the test with PC-3 it was 28.1 µM (inactive); in the test on SK-MEL-28, 35.3 µM (inactive); in the test on SN12C, 36.2 µM (inactive); in the test with SR, 40.3 µM (inactive); in the test on SW-620, 33.3 µM (inactive). Moreover, the figures for the GI50 in the test with T47D and with UACC-62 were 28.1 µM (inactive) and 26.8 µM (inactive), respectively.

Turning to `COc1ccc2[nH]cc([C@@H]3C4CCC(C4)[C@H]3NCc3cccc(CN[C@H]4C5CCC(C5)[C@@H]4c4c[nH]c5ccc(OC)cc45)c3)c2c1`, the GI50 in the test on A549 is 1.46 µM (inactive) and 1.61 µM (inactive); in the test with ACHN, 1.76 µM (inactive) and 1.16 µM (inactive); with CCRF-CEM, 366 nM (active) and 352 nM (active); with EKVX it was 1.51 µM (inactive) and 1.52 µM (inactive); in the test on HOP-92 it was 1.1 µM (active) and 1.31 µM (inactive); with KM12, 463 nM (active) and 643 nM (active). The GI50 in the test on LOX IMVI is 244 nM (active) and 235 nM (active); in the test on MDA-N it was 1.15 µM (inactive) and 933 nM (active); in the test with MOLT-4, 577 nM (active) and 467 nM (active); in the test on OVCAR-3, 1.65 µM (inactive) and 1.54 µM (inactive); in the test with OVCAR-4, 1.37 µM (inactive) and 1.32 µM (inactive); in the test on OVCAR-5 it was 1.55 µM (inactive) and 1.71 µM (inactive). Besides, the GI50 in the test on OVCAR-8 is 891 nM (active) and 998 nM (active); with PC-3 it was 1.29 µM (inactive) and 1.46 µM (inactive); in the test with SN12C it was 1.1 µM (active) and 1.51 µM (inactive); in the test on SR, 231 nM (active) and 250 nM (active); in the test on SW-620, 238 nM (active) and 384 nM (active); with T47D, 1.72 µM (inactive) and 1.99 µM (inactive). Also, the GI50 in the test on UACC-62 was 1.8 µM (inactive) and 1.75 µM (inactive).

With `O=C(CCc1ccc(O)c(O)c1)NCCc1cc(O)c(O)c(O)c1`, the GI50 with A549 is 22.5 µM (inactive); in the test with ACHN it was 33.8 µM (inactive); in the test with CCRF-CEM, 44.5 µM (inactive); in the test on EKVX, 22.9 µM (inactive); in the test on HOP-92 it was > 100 µM (inactive); in the test with KM12, 25.4 µM (inactive). The GI50 in the test on LOX IMVI is 17.7 µM (inactive); in the test with MDA-N it was 16.9 µM (inactive); in the test with MOLT-4, 21.6 µM (inactive); in the test on OVCAR-3 it was 19.8 µM (inactive); in the test on OVCAR-4, 20.2 µM (inactive); with OVCAR-5, 61.2 µM (inactive). Besides, the GI50 in the test with OVCAR-8 was 20.4 µM (inactive); with PC-3 it was > 100 µM (inactive); in the test with SK-MEL-28, > 100 µM (inactive); with SN12C, 17.9 µM (inactive); in the test on SR, 26.9 µM (inactive); in the test on SW-620, 18.8 µM (inactive). The GI50 was 70.8 µM (inactive) with T47D and 90.8 µM (inactive) in the test with UACC-62.

Consider `CSc1nc(=S)[nH]c2c1c(C)nn2-c1ccccc1`, for which the GI50 with A549 was 31.3 µM (inactive); in the test on ACHN, 21.9 µM (inactive); in the test on CCRF-CEM, 10.6 µM (inactive); in the test on EKVX, 18.1 µM (inactive); in the test with HOP-92 it was 7.1 µM (inactive); with LOX IMVI it was 15.7 µM (inactive). For the same molecule, the GI50 with MDA-N was 24.8 µM (inactive); in the test on MOLT-4, 14.2 µM (inactive); in the test with OVCAR-3, 35.5 µM (inactive); with OVCAR-4, 17.2 µM (inactive); in the test with OVCAR-5, 51.1 µM (inactive); with PC-3, 25.7 µM (inactive). Also, the GI50 in the test with SK-MEL-28 was 38.8 µM (inactive); in the test on SN12C, 21.1 µM (inactive); in the test with SR, 11.2 µM (inactive); with SW-620 it was 34.5 µM (inactive); with T47D, 19.1 µM (inactive); in the test with UACC-62, 14.5 µM (inactive).

For the molecule `COc1ccc(-c2nnc3n(Cc4ccccc4)c4ccccc4n3c2=O)cc1`, the GI50 in the test with A549 was 45 µM (inactive); with ACHN it was 15.2 µM (inactive); in the test with CCRF-CEM, > 100 µM (inactive); in the test with EKVX it was 29.8 µM (inactive); with HOP-92, 19.4 µM (inactive); with KM12, > 100 µM (inactive). The GI50 in the test with LOX IMVI is 49.9 µM (inactive); in the test on MDA-N it was > 100 µM (inactive); in the test on MOLT-4, > 100 µM (inactive); in the test with OVCAR-4, 6.01 µM (inactive); in the test on OVCAR-5 it was 42.8 µM (inactive); in the test with OVCAR-8, 30.9 µM (inactive). The GI50 was 5.92 µM (inactive) in the test with PC-3; 36.4 µM (inactive) in the test with SK-MEL-28; 55 µM (inactive) in the test on SN12C; > 100 µM (inactive) in the test with SR; > 100 µM (inactive) with SW-620; 45.6 µM (inactive) with T47D.

For `O=[N+]([O-])/C(Cl)=C/C(=C1/Nc2ccccc2O1)[N+](=O)[O-]`, the GI50 was 34.8 µM (inactive) with A549; 18.1 µM (inactive) in the test on ACHN; 13.3 µM (inactive) in the test with CCRF-CEM; 18.8 µM (inactive) in the test on EKVX; 24.7 µM (inactive) in the test on HOP-92; 19.2 µM (inactive) with KM12. Further, the GI50 was 8.13 µM (inactive) with LOX IMVI; 18.5 µM (inactive) in the test on MDA-N; 19.8 µM (inactive) with MOLT-4; 19.3 µM (inactive) with OVCAR-3; 29 µM (inactive) in the test on OVCAR-4; 17.9 µM (inactive) in the test on OVCAR-8. Besides, the GI50 in the test on PC-3 was 14.1 µM (inactive); in the test with SK-MEL-28, 19.5 µM (inactive); in the test on SN12C it was 36.1 µM (inactive); in the test on SR, 8.71 µM (inactive); in the test with SW-620 it was 32.7 µM (inactive); in the test on T47D it was 32.6 µM (inactive). For the same molecule, in the test with UACC-62, the GI50 is 23.4 µM (inactive).

As to `COc1ccc(Nc2nn3c(=O)c4c(C)c(C)sc4nc3s2)cc1`, the GI50 in the test with A549 was 18.6 µM (inactive); with ACHN, 41.4 µM (inactive); in the test with CCRF-CEM it was 31.6 µM (inactive); with HOP-92, 27.3 µM (inactive); with KM12, 44.8 µM (inactive); in the test with LOX IMVI, 56.9 µM (inactive). In addition, the GI50 was 45.6 µM (inactive) in the test on MDA-N; 43.2 µM (inactive) in the test on MOLT-4; 29.1 µM (inactive) in the test on OVCAR-3; 24.4 µM (inactive) in the test with OVCAR-4; 52.4 µM (inactive) in the test with OVCAR-5; 49.1 µM (inactive) in the test on OVCAR-8. Moreover, the GI50 in the test on PC-3 is 36.1 µM (inactive); with SK-MEL-28, 61.1 µM (inactive); in the test on SN12C it was 33.5 µM (inactive); in the test on SR, 9.84 µM (inactive); in the test with SW-620, 55.7 µM (inactive); in the test with T47D, 25.7 µM (inactive). In the test on UACC-62, the GI50 was 71 µM (inactive).
